How the values were obtained:
[1] = Half life period in rat plasma at 37 degree Celsius temperature (pH 7.4); format: ADME, organism-based
[2] = Half life period in phosphate buffer at pH 7.4; format: ADME; conditions: for T1/2: buffer
Homo sapiens [3] = species: Homo sapiens; assay: Half life period in human plasma at 37 degree Celsius temperature (pH 7.4)
Homo sapiens [4] = species: Homo sapiens; assay: Half life period in human plasma at 25 degree Celsius temperature (pH 7.4)
[5] = Half life period in phosphate buffer at pH 7.4 & 25 degrees C; format: ADME
[6] = Half life period in rat plasma at 25 degree Centigrade temperature (pH 7.4); format: ADME, organism-based

Q: Which results are given for `O=C(Nc1cc(Cl)ccc1O)OCC(Cl)(Cl)Cl`?
A: half-life [1]: 7.5 min; half-life [2]: 3.2 min; half-life (Homo sapiens [3]): 10.1 min

Q: For `O=C(Nc1cc(Cl)ccc1O)Oc1cccc(C(F)(F)F)c1`, which T1/2 [2] is on record?
A: Its T1/2 is 0.0517 min.

Q: For `CC#CCOC(=O)Nc1cc(Cl)ccc1O`, which half-life ([2]; phosphate buffer) is on record?
A: The half-life was 566 min.

Q: For `C#CCOC(=O)Nc1cc(Cl)ccc1O`, which half-life ([2]; phosphate buffer) is on record?
A: Its half-life is 108 min.

Q: For `O=C(Nc1cc(Cl)ccc1O)Oc1ccccc1`, which half-life ([2]; phosphate buffer) is on record?
A: Its half-life is 0.2 min.

Q: With `O=C(Nc1cc(Cl)ccc1O)OCC(F)(F)F` as the compound, how does the half-life [2] read?
A: Its half-life is 2.58 min.

Q: For `O=C(Nc1cc(Cl)ccc1O)Oc1cccc(Cl)c1`, which T1/2 [2] is on record?
A: The T1/2 was 0.0633 min.

Q: Which half-life [1] does the source give for `O=C(Nc1cc(Cl)ccc1O)OCC(Cl)Cl` here?
A: The half-life was 53.8 min.

Q: And the half-life [2]?
A: Its half-life is 42.4 min.

Q: And the half-life (Homo sapiens [3])?
A: The half-life was 105 min.

Q: Which half-life ([2]; phosphate buffer) does the source give for `O=C(Nc1cc(Cl)ccc1O)OCCCl` here?
A: The half-life was 1310 min.

Q: With `CC(=O)Nc1ccc(OC(=O)Nc2cc(Cl)ccc2O)cc1` as the compound, how does the half-life (Homo sapiens [4]) read?
A: The half-life was 1.1 min.

Q: And the half-life ([2]; phosphate buffer)?
A: The half-life was 0.118 min.

Q: What about the half-life [5] of the same compound?
A: The half-life was 0.6 min.

Q: What about the half-life [6] of the same compound?
A: The half-life was 0.833 min.

Q: For `CC(=O)Nc1cccc(OC(=O)Nc2cc(Cl)ccc2O)c1`, which half-life ([2]; phosphate buffer) is on record?
A: The half-life was 0.125 min.

From ChEMBL document CHEMBL1128836, “Synthesis of prodrugs and a mutual prodrug of chlorzoxazone and acetaminophen based on a masked benzoxazolone” (Bioorg Med Chem Lett, 1995)
